The text below walks through data of ChEMBL document CHEMBL4390692, “Enzymatic activation of indolequinone-substituted 5-fluorodeoxyuridine prodrugs in hypoxic cells” (Bioorg Med Chem Lett, 2019).

The source made the active and inactive calls. The rule behind the calls is not given here.

Data set [1] deals with A549. Briefly: Cytotoxicity against human A549 cells at 1 uM treated 24 hrs post aerobic condition and measured after 72 hrs under aerobic condition by WST-8 assay relative to control. In kind it is cell-based. Particulars: a549, 72 h.
The target in data set [2] is T1, NADPH--cytochrome P450 reductase (Homo sapiens, UniProt P16435).
T1 sequence (P16435 whole entry): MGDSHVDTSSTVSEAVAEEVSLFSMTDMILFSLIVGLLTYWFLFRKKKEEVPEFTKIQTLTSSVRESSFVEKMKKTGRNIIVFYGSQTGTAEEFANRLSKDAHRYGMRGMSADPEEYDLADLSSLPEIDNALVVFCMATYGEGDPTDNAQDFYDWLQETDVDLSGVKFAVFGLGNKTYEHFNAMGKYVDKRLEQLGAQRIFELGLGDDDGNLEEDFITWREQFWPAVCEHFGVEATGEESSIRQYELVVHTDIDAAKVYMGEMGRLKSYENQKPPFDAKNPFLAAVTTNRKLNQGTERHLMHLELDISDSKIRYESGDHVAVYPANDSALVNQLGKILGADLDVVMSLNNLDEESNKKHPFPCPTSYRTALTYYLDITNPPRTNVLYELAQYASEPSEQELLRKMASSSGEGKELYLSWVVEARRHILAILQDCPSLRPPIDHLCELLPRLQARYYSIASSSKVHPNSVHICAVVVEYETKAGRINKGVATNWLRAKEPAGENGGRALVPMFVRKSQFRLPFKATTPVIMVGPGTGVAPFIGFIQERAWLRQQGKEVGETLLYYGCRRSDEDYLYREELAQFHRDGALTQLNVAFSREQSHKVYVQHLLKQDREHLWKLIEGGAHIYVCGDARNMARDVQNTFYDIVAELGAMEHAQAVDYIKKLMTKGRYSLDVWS
Briefly: Prodrug activation in pH 7.4 PBS buffer assessed as 3.3 ug/mL NADPH-cytochrome P450 reductase (unknown origin) mediated FdUrd formation at 0.62 mM in the presence of beta-NADPH measured after 2 hrs under hypoxic condition by reverse phase HPLC relative to control. Particulars: pH 7.4, 2 h, 620 µM. In kind it is ADME.

For data set [3], the target named is T1, NADPH--cytochrome P450 reductase. Description: Prodrug activation in pH 7.4 PBS buffer assessed as 3.3 ug/mL NADPH-cytochrome P450 reductase (unknown origin) mediated FdUrd formation at 0.62 mM in the presence of beta-NADPH measured after 2 hrs under aerobic condition by reverse phase HPLC. It is filed as ADME. Particulars: pH 7.4, 2 h, 620 µM.
Data set [4] concerns A549. Briefly: Cytotoxicity against human A549 cells at 1 to 50 uM treated 24 hrs post hypoxic condition measured after 72 hrs under hypoxic condition by WST-8 assay relative to control. It is filed as functional, cell-based. For orientation: Formazan colour is commonly taken as a measure of viable cells.
Substrate in data set [5]: COC1=CC(=O)c2c(c(Cn3c(=O)c(F)cn([C@H]4C[C@H](O)[C@@H](CO)O4)c3=O)c(C)n2C)C1=O
Description: Prodrug conversion in pH 7.4 PBS buffer assessed as NADPH-cytochrome P450 reductase (unknown origin) mediated FdUrd release by measuring Km at 0.62 mM in the presence of beta-NADPH measured after 2 hrs under hypoxic condition by Lineweaver-Burk plot analysis. It is filed as ADME, Homo sapiens.

Substrate in data set [6]: COC1=CC(=O)c2c(c(Cn3c(=O)c(F)cn([C@H]4C[C@H](O)[C@@H](CO)O4)c3=O)c(C)n2C)C1=O
Description: Prodrug conversion in pH 7.4 PBS buffer assessed as NADPH-cytochrome P450 reductase (unknown origin) mediated FdUrd release by measuring Km at 0.62 mM in the presence of beta-NADPH measured after 2 hrs under aerobic condition by Lineweaver-Burk plot analysis. It is filed as ADME, Homo sapiens.

Take `O=c1[nH]c(=O)n([C@H]2C[C@H](O)[C@@H](CO)O2)cc1F` [FLOXURIDINE]: the Activity result with A549 [1] was “Toxic”.

Consider `CNC1=CC(=O)c2c(c(Cn3c(=O)c(F)cn([C@H]4C[C@H](O)[C@@H](CO)O4)c3=O)c(C)n2C)C1=O`, for which the Drug metabolism entry in data set [2] was “Metabolite_Notdetected”.

Turning to `COC1=CC(=O)c2c(c(Cn3c(=O)c(F)cn([C@H]4C[C@H](O)[C@@H](CO)O4)c3=O)c(C)n2C)C1=O`, the Drug metabolism entry in data set [3] is “Metabolite_Notdetected”. Besides, in the data set on A549 [4], the outcome was Active. The Activity result in the data set on A549 [1] was “Non-Toxic”.

B1: NADPH--cytochrome P450 reductase (Homo sapiens) (protein)
chain: T1 sequence (P16435 whole entry)
With B1, in data set [5], the Km (as a rule, the concentration of substrate that gives half-maximal velocity) was determined as 1000 µM and the Vmax (commonly the top rate of the reaction or transport when substrate is in excess) is 3.4e-06 µmol/min. Further, in data set [6], the Michaelis constant (Km) worked out at 1500 µM and the Vmax was 2e-07 µmol/min.
